Data set [1] can be described thus: Plantar carrageenin edema test (anti-inflammatory). As to conditions: gastric catheter; for Inhibition % M ± σ: complementary value to area relative inflammation; for % Area Relative Inflammation (M ± σ): control = 100%. The format is in vivo, albino Sprague-Dawley male rats. Here is the method:
The anti-inflammatory activity of two compounds was studied by means of the test of the plantar carrageenin edema (C. A. Winter, Proc. Soc. Exp. Brol. Med. 111, 544-47 (1962). The method used consists of preparing homogeneous lots of albino Sprague-Dawley male rats with weights of from 180-200 gr, to which are administered, by gastric catheter, the test compound suspended in a vehicle containing 0.2% CMC and 0.1% Tween 80, sixty minutes before the production of the subplantar edema. […] Immediately after this, all the rats received via oral administration 20 ml/kg of distilled water to attain uniform hydration. 60 minutes later a 1% carrageenin solution in physiologic serum was administered subcutanaceously into the left rear leg of each rat, at a dosage of 0.1 ml/rat. The same amount of physiologic serum was then injected into the right rear leg of each rat.
The plantar amount of the left and right rear extremities of each rat was determined before the administration of the carrageenin solution, and 1, 2, 3, 4, 5 and 6 hours after the administration thereof by means of a mercury plethysmograph, Ugo Basile Model 7.100. Indomethacin was used as a sample drug for purposes of comparison. Results were calculated as percentages representing the value indicated for each area relative to the value of the areas for the control group to which were assigned the value of 100% inflammation. A complementary value, the percentage of inhibition, was also calculated from the data. The arithmetic average and standard deviation (M±σ) were calculated for the obtained values as to the volumes of each leg, normal or inflamed, for each animal in each group (control and treated).

Data set [2] in a line: Podolorimetric test in a rat (analgesic, yeast-infected leg). It is filed as in vivo. As to conditions: 10 rats, vs control rats. Here is the method:
(§1) The new 2-[(2,6-dichlorophenyl)amino]phenylacetoxyacetyl derivatives, according to the present invention, are compounds of therapeutic use with anti-inflammatory and analgesic pharmacologic properties, as shown by experimental pharmacologic data presented below. The analgesic activity of the compound (I) where R=H was determined by three known methods as follows.
This test is based upon the method described by Randall, L. and Selitto, 3. Arch. Int. Pharmacodyn. 111, 409 (1957), consisting of administering the drug in a 1% carboxymethylcellulose (CMC) suspension. The test compound is administered to the rat, and 30 minutes thereafter a 20% yeast suspension is administered into the left leg of the rat and the same amount of physiologic serum is administered to the right leg of the rat. The threshold of the weight supported by both legs is determined 1 h., 2 h. and 4 h. after the administration of the yeast. Table 3 states the percentage of protection in terms of increased weight supported by the yeast-infected leg, relative to the dosage of the test compound, in comparison with a group of control rats to which no test compound was administered.

Data set [3] is described as follows: Test of abdominal contractions by acetic acid (analgesic). It is filed as in vivo, male mice. As to conditions: gastric catheter, 16 mice, half an hour before acetic acid i.p. As for the experimental part:
as §1
This test was carried out according to the experimental model described by Koster R., Anderson, M. and De Bear, E. J. Fed. Proc., 18, 412 (1959). A suspension of the product to be tested was administered to a group of male mice through a gastric catheter half an hour before injecting the mice intraperitoneally with 0.2 ml of a 2% acetic acid solution. The number of abdominal contractions, manifested by drawing in of the rear third of the animal as a consequence of the chemical aggression incited by the acetic acid, were then counted.

A short description of data set [4]: Acute toxicity by oral administration to rats. As to conditions: for LD0: oral, rats. As for the experimental part:
The acute toxicity of the foregoing compounds according to the present invention was studied by oral administration thereof to rats. The LD0 and LD50 values were determined, together with the limits of reliability as determined by the method of Litchfield and Wilcoxon.

A short description of data set [5]: Fetal and teratogenous toxicity. The following applies: 15, 50 and 75 mg/kg/day oral during organogenesis. The format is in vivo, Sprague-Dawley rats and first generation fetuses.
A short description of data set [6]: Hot plate thermal stimulus test on mice (analgesic). The format is in vivo. As to conditions: gastric catheter, hot plate 56° C., 10 mice, vs control mice. As for the experimental part:
as §1
This test is carried out according to the experimental model of Wolfe, G. and MacDonal, A. D., described in 3. Pharm. Exper. Therap. 80, 300 (1944). This test consists of administering, through a gastric catheter, a suspension of the test compound at the indicated dosages. After 30 minutes, 1 h., 11/2 h. and 2 h. the determinations were made. Mice were placed onto a hot plate at a temperature of 56° C. Table 2 indicates the percentage of protection from pain afforded by the dosages of the test compound in comparison with a group of control mice to which no test compound was administered.

The results in this text go back to patent US4548952A, “2-[(2,6-Dichlorophenyl)amino]phenylacetoxyacetyl derivatives and therapeutic compositions containing same” (priority 1983, dated 1985).

Structures are written as SMILES.

On to `COc1ccc2c(c1)c(CC(=O)O)c(C)n2C(=O)c1ccc(Cl)cc1` [INDOMETHACIN, Indomethacin, reference compound], for which, in data set [1] (2.5 mg/kg, 40 animals), the “Inhibition % M ± σ” value worked out at 46.52% and the “% Area Relative Inflammation (M ± σ)” value is reported as 53.48 ± 7.82%.

For the molecule `O=C(O)COC(=O)Cc1ccccc1Nc1c(Cl)cccc1Cl` [I, R = H, 2-[(2,6-dichlorophenyl)amino]phenylacetoxyacetic acid], the “% PROTECTION (increased weight supported by the yeast-infected leg)” value in data set [2] (2.5 mg/kg) is reported as 32.05%; in data set [2] (10 mg/kg), 45.45%. In addition, the “% PROTECTION (CONTROL OF CONTRACTIONS)” value in data set [3] (100 mg/kg) is reported as 30.81%; in data set [3] (250 mg/kg) it was 67.62%. Besides, the LD0 in data set [4] turned out to be 68.03 mg/kg. For the same molecule, the teratogenous effects result in data set [5] is “did not have any teratogenous effects”. Besides, in data set [5], the “toxic effects on the gestating females” value is listed as “did not produce any toxic effects on the gestating females”. The figures for the “% PROTECTION” value in data set [6] (20 mg/kg) and in data set [6] (40 mg/kg) were 22.44% and 24.80%, respectively. Besides, the “Inhibition % M ± σ” value in data set [1] (3.0 mg/kg, 32 animals) turned out to be 33.75%. The “% Area Relative Inflammation (M ± σ)” value in data set [1] (3.0 mg/kg, 32 animals) is reported as 63.25 ± 5.88%.

In data set [4], `O=C(COC(=O)Cc1ccccc1Nc1c(Cl)cccc1Cl)OCc1ccccc1` [I, R = CH2 --C6 H5, Benzyl 2-[(2,6-dichlorophenyl)amino]phenylacetoxyacetate] had an LD0 of 38.51 mg/kg. In data set [4] (rat, in vivo, po), this molecule came in with an LD50 of 95.3 mg/kg. Further, in data set [5], the teratogenous effects entry is listed as “did not have any teratogenous effects” and the “toxic effects on the gestating females” value was “did not produce any toxic effects on the gestating females”. In data set [1] (3.75 mg/kg, 32 animals), the “Inhibition % M ± σ” value is on record as 35.96% and the “% Area Relative Inflammation (M ± σ)” value worked out at 64.04 ± 7.91%.
